Data reported in patent US7518005B2, “Water-soluble anti-dandruff compounds and compositions thereof” (Galaxy Surfactants Limited, priority 2005, dated 2009).

Key:
M. furfur [1] = experiment: Zone of inhibition against M. furfur, comparison with other known anti-dandruff agents (Example 5); assay type: cell-based
From the text: M. furfur is one of the microorganism, which causes dandruff Method of Analysis: Zone of Inhibition Principle: Larger the zone of inhibition greater is the anti-dandruff activity.

[2] = Viscosity booster effect in shampoo formulation; details: 15% active sodium lauryl ether sulfate, 2% booster
M. furfur [3] = experiment: Zone of inhibition of M. furfur in SLES, comparison with Undecylenic amido propyl betain (Example 7); assay type: cell-based
From the text: Undecylenic amido propyl betain is a reported anti-dandruff product, so Undecylenic amidopropyl dimethyl Hydroxy ethyl ammonium undecylenate was compared. Carried out of zone of inhibition of M. furfur against 1, 2%, 5% & 7% Undecylenic amido propyl betain in SLES and compared it with Undecylenic amido propyl dimethyl Hydroxy ethyl ammonium undecylenate

Compound	Comments (M. furfur [1]; Concent. 0.5%)	Zone of inhibition in mm (M. furfur [1]; Concent. 0.5%) [mm]	Comments (M. furfur [1]; Concent. 1%)	Zone of inhibition in mm (M. furfur [1]; Concent. 1%) [mm]	Comments (M. furfur [1]; Concent. 1.5%)	Zone of inhibition in mm (M. furfur [1]; Concent. 1.5%) [mm]	Comments (M. furfur [1]; Concent. 2%)	Zone of inhibition in mm (M. furfur [1]; Concent. 2%) [mm]	other results
C=CCCCCCCCCC(=O)NCCO [Undecylenic mono ethanolamide]	Not effective	0	Less	2	Less	4	Less	6	–
Undecylenic monoethanol amido sulfosuccinate	Not effective	0	Not effective	0	Not effective	0	Not effective	0	–
Cocomonoethanolamide [CMEA]	–	–	–	–	–	–	–	–	Viscosity in cps at 28° C. ([2]; Sodium chloride 0.5%): 55 cps; Viscosity in cps at 28° C. ([2]; Sodium chloride 1.0%): 600 cps; Viscosity in cps at 28° C. ([2]; Sodium chloride 1.5%): 3000 cps; Viscosity in cps at 28° C. ([2]; Sodium chloride 2.0%): 11000 cps; Viscosity in cps at 28° C. ([2]; Sodium chloride 2.5%): 17000 cps
C=CCCCCCCCCC(=O)NCCC[N+](C)(C)CC(=O)[O-] [Undecylenic amidopropyl betaine]	–	–	–	–	–	–	–	–	Comments (M. furfur [3]; 1%): Less; Zone of inhibition in mm (M. furfur [3]; 1%): 3 mm; Comments (M. furfur [3]; 2%): Less; Zone of inhibition in mm (M. furfur [3]; 2%): 6 mm; Comments (M. furfur [3]; 5%): Less; Zone of inhibition in mm (M. furfur [3]; 5%): 6 mm; Comments (M. furfur [3]; 7%): Effective; Zone of inhibition in mm (M. furfur [3]; 7%): 8 mm
C=CCCCCCCCCC(=O)NCCC[N+](C)(C)CCOCCO.[Cl-] [Undecylenic amidopropyl dimethyl Hydroxy ethoxy ethyl ammonium chloride]	Less	2	Less	3	Less	6	Effective	8	–
